From patent US6126909A, “Process and apparatus for the production of BI-212 and a use thereof” (Arch Development Corporation, priority 1999, dated 2000)
Where “and” joins values, the source holds several entries; their conditions need not be identical. Identical values can stand only once.

Legend:
[1] = Biodistribution after intraperitoneal instillation; type: in vivo, rabbit
Description: (§1) In vivo studies were conducted to determine the distribution of Bi-212 produced using the above-noted process and to compare the Bi-212 distribution to the distribution of Pb-212 ferrous hydroxide in colloidal form. The in vivo studies were conducted using white, female New Zealand rabbits weighing about 4.5 kilograms ([…]) each. Studies were also conducted using rabbits to determine the toxicity levels, e.g., the maximum tolerated dose. Efficacy studies were conducted using 25 gram (gm) female Swiss-Webster mice inoculated with Ehrlich-Lettre Ascites carcinoma cells.
The rabbits were first anesthetized by intravenous titration. A polyethylene catheter was then inserted into the lower right quadrant of the rabbits' abdominal cavities and a trace amount of technetium-99m pertechnetate was instilled to confirm that the catheter was correctly placed.
Groups of rabbits were instilled with a varying amounts (correlating to varying activities) of Bi-212 that were prepared in accordance with the before-described process, neutralized to pH values of between 5.0 and 7.4, and had added thereto a quantity of normal saline to make a 200 cc sample. To compare the distribution of Bi-212, Pb-212 ferrous hydroxide was prepared in accordance with known methods. Rotmensch et al., Gynecol. Oncol., 35:297-300 (1989). Groups of rabbits were also instilled with the Pb-212 ferrous hydroxide preparation.
After instillation, the rabbits were rotated and imaged with a gamma camera set at 2.6 MeV. Where localization of the nuclide was identified in the rabbits, the rabbits were sacrificed and the localized area was excised and photographed.
Of the groups of rabbits instilled with the Bi-212 solution, a rabbit was imaged and necropsied at each of one-half hour, one hour and three hours after instillation. The percent injected activity (%IA) in each organ was measured to determine the distribution of the Bi-212(Table 6). To determine whether chelating to DTPA improved the retention of Bi-212 in the peritoneal fluid, a group of rabbits was instilled with Bi-212 DTPA, and was imaged and necropsied at three hours following instillation. The percent activity remaining in the peritoneal fluid was measured.

[2] = Retention after intraperitoneal injection in mice; type: in vivo, mouse
[3] = test system: Ehrlich-Lettre Ascites carcinoma cells; assay: Efficacy study in mice inoculated with carcinoma cells; type: in vivo, mouse; settings: 100 μCi i.p.
Description: as §1
Efficacy studies were conducted using groups of five 25 gm female Swiss-Webster mice that were intraperitoneally inoculated with 10^6 Ehrlich-Lettre Ascites carcinoma cells. The mice were subsequently instilled with 100 μCi of Bi-212 in up to 1 cc normal saline 48 hours after inoculation with the Ehrlich-Lettre Ascites carcinoma cells. The mice were sacrificed at one-half hour, one hour and 3 hours after instillation with the Bi-212 solution. Control groups were inoculated with the Ehrlich-Lettre Ascites carcinoma cells only.

[4] = 1/2 hour after intraperitoneal instillation
[5] = 1 hour after intraperitoneal instillation
[6] = 3 hours after intraperitoneal instillation

SMILES: [212Bi] [Bi-212, bismuth-212]
- Peritoneal fluid [1, 4]: 85.0 % IA and 70.3 % IA and 90.1 % IA
- Stomach [1, 4]: 0.26 % IA and 0.34 % IA
- Lower intestine & colon [1, 5]: 0.87 % IA
- Peritoneal fluid [1, 5]: 85.7 % IA and 85.1 % IA and 88 % IA
- Stomach [1, 5]: 0.09 % IA
- Circulating blood [1, 6]: 3.4 % IA and 1.86 % IA and 2.96 % IA
- Kidney [1, 6]: 2.15 % IA and 1.21 % IA and 2.10 % IA
- Liver [1, 6]: 2.26 % IA and 2.25 % IA and 1.17 % IA
- Lower intestine & colon [1, 6]: 7.14 % IA and 5.87 % IA and 9.14 % IA
- Peritoneal fluid [1, 6]: 75.8 % IA and 80.2 % IA and 83.8 % IA
- Reproductive organs [1, 6]: 0.53 % IA and 0.61 % IA and 0.59 % IA
- Stomach [1, 6]: 0.90 % IA and 0.76 % IA and 0.59 % IA
- Upper small intestine [1, 6]: 8.04 % IA and 6.63 % IA and 9.73 % IA
- Carcass ([2]; 1 min): 88.3 % IA
- Urine ([2]; 1 min): 0.025 % IA
- Carcass ([2]; 10 min): 87.3 % IA
- Urine ([2]; 10 min): 2.2 % IA
- Carcass ([2]; 16 min): 66.8 % IA
- Stool ([2]; 16 min): 0.20 % IA
- Urine ([2]; 16 min): 2.9 % IA
- Carcass ([2]; 30 min): 79.1 % IA
- Stool ([2]; 30 min): 0.53 % IA
- Urine ([2]; 30 min): 6.9 % IA
- Carcass ([2]; 61 min): 68.5 % IA
- Stool ([2]; 61 min): 1.3 % IA
- Urine ([2]; 61 min): 15.9 % IA
- Carcass ([2]; 120 min): 62.9 % IA
- Stool ([2]; 120 min): 6.7 % IA
- Urine ([2]; 120 min): 19.5 % IA
- Stool ([2]; 180 min): 8.3 % IA
- Urine ([2]; 180 min): 24.8 % IA
- Carcass ([2]; 180 min (3 hours)): 61.4 % IA
- Median survival time ([3]; 48 hours after 10^6 cells, after treatment): 82 days
- Cure with no evidence of disease ([3]; 3 months later): 40%
